Like-named read-outs stand apart in the source and are kept apart here.
Legend:
R. solani [1] = assay: Plug transfer to PDA plates without calcium propionate (fungistatic or fungicidal); assay type: cell-based, Rhizoctonia solani
M. poae [2] = assay type: cell-based, Magnaporthe poae
G. graminis [3] = assay: Plug transfer to PDA plates without calcium propionate (fungistatic or fungicidal); assay type: cell-based, Gaeumannomyces graminis
R. solani [4] = assay: New inoculants in MEB liquid culture amended with calcium propionate; assay type: cell-based, Rhizoctonia solani; conditions: MEB with 1, 2, 5 and 10% (w/v) calcium propionate; five days
Procedure: (§1) To examine the effective dose range in liquid culture, malt extract broth (MEB) was prepared and amended with calcium propionate at concentrations of 1, 2, 5 and 10% (w/v). Unamended MEB was used as a control for growth. Each of the four microbes identified in Example 1 was tested twice by inoculating MEB using agarose plugs from luxuriant cultures. Growth was observed over five days. In each microbe examined, visible growth in liquid culture was apparent by day 2 following inoculation with well-established growth by 4 days in the absence of calcium propionate.

G. graminis [5] = assay: Growth on PDA with calcium propionate fully integrated into the agarose; assay type: cell-based, Gaeumannomyces graminis
Procedure: (§2) In contrast to the zone of inhibition assays described in Examples 1-3, for this experiment, PDA with calcium propionate fully integrated into the agarose was prepared. Thus, inoculants were grown on plates in which calcium propionate was incorporated at a uniform concentration throughout the plate, rather than the zones of concentration established by simple diffusion in the zone of inhibition assays. The PDA plates were amended with 5, 7.5, 10, or 12% (w/v) calcium propionate. Growth diameter was recorded for 15 days post inoculation. The data shown in Table 3 represent the results of single plate tests.

dollar spot = assay: Golf Course 2: infected live turfgrass, visual detection of dollar spot; assay type: in vivo, Scerotinia homoeocarpa; conditions: 3-4 grams per square meter every 10 days, 5% (w/v) solution sprayed; 10 days following initial application
Procedure: (§3) Calcium propionate was dissolved in water to form a 5% (w/v) solution. […] The turfgrass was comprised primarily of Agrostis capillaris. The calcium propionate 5% (w/v) solution was sprayed onto the turfgrass at a concentration of 3-4 grams per square meter every 10 days.

M. poae [6] = assay type: cell-based, Magnaporthe poae; conditions: MEB with 1%, 2%, 5% or 10% (w/v) calcium propionate; five days
Fusarium oxysporum = assay: Golf Course 2: infected live turfgrass, visual detection of Fusarium oxysporum infection; assay type: in vivo; conditions: 3-4 grams per square meter every 10 days, 5% (w/v) solution sprayed; 10 days following initial application
Procedure: as §3

S. homoeocarpa = assay: Growth on PDA with calcium propionate fully integrated into the agarose; assay type: cell-based, Scerotinia homoeocarpa; conditions: for Growth, S. homeocarpa: single plate
Procedure: as §2

G. graminis [7] = assay: New inoculants in MEB liquid culture amended with calcium propionate; assay type: cell-based, Gaeumannomyces graminis; conditions: MEB with 1, 2, 5 and 10% (w/v) calcium propionate; five days
Procedure: as §1

G. graminis [8] = assay: Zone of inhibition assay on PDA plates; assay type: cell-based, Gaeumannomyces graminis
Procedure: To test the efficacy of calcium propionate (CaP) against the four microbes listed above, zone of inhibition assays were performed. Wells were bored in potato dextrose agarose (PDA) plates then amended with […] calcium propionate at concentrations of 0.1%, 0.2%, 0.3%, 0.4%, and 0.5% (w/v). Control plates were amended with […] dH2O. Plates were inoculated using plugs from active cultures. Growth patterns were observed over seven days. Representative results with M. poae are shown at three days following inoculation (FIG. 1A) and seven days following inoculation (FIG. 1B).
The zone of inhibition assays described in Example 1 were performed using calcium propionate doses of 0.5%, 1%, 2%, 3%, and 4% (w/v). Growth diameter was recorded at 2, 5, and 7 days post inoculation. The data shown in Table 1 represent the average±standard deviation (SD) of two replicate plates for each strain tested.
Zone of inhibition assays using PDA plates amended with 5-12% (w/v) calcium propionate were performed as described above. As a control, plates were amended with a composition comprising propiconazole, a commonly used fungicidal treatment for microbe infection of turfgrass, sold under the trademark Banner MaxxII®. Growth diameter was recorded for 13 days post inoculation. The data shown in Table 2 represent the average±standard deviation (SD) of three replicate plates for each strain tested. Inoculants of S. homoeocarpa, M. poae, and R. solani generally grow to luxuriant culture, covering the entire surface of the plate (8.5 cm growth) in 7 days.

M. poae [9] = assay type: cell-based, Magnaporthe poae; remark: listed apart in the source
[10] = plugs initially grown on 5, 7.5, 10 or 12% (w/v) calcium propionate, observed 14 days
[11] = any of the concentrations tested (5, 7.5, 10, 12% w/v), 15 days

CCC(=O)[O-].CCC(=O)[O-].[Ca+2] [calcium propionate]
concentration required to achieve a fungicidal effect on R. solani (R. solani [1]): 10-12 % (w/v)
fungistatic or fungicidal effect, R. solani (R. solani [1]; 5% (w/v) calcium propionate): fungistatic rather than fungicidal
growth on unamended PDA after plug transfer, R. solani (R. solani [1]; plugs from 5% and 7.5% (w/v) calcium propionate plates, 6-7 days following transfer): luxuriant growth
growth on unamended PDA after plug transfer, R. solani (R. solani [1]; plugs from 10% and 12% (w/v) calcium propionate plates): did not grow
fungistatic or fungicidal effect, M. poae (M. poae [2]; 5% (w/v) calcium propionate): fungicidal effect
growth on unamended PDA after plug transfer, M. poae (M. poae [2]; [10]): No growth was seen
fungistatic or fungicidal effect, G. graminis (G. graminis [3]; 5% (w/v) calcium propionate): fungicidal effect
growth on unamended PDA after plug transfer, G. graminis (G. graminis [3]; [10]): No growth was seen
growth in liquid culture, R. solani (R. solani [4]): no growth was observed
Growth, G. graminis (G. graminis [5]; PDA with 5% (w/v) calcium propionate, day 4, single plate): 0 cm
Growth, G. graminis (G. graminis [5]; PDA with 5% (w/v) calcium propionate, day 5, single plate): 0 cm
Growth, G. graminis (G. graminis [5]; PDA with 5% (w/v) calcium propionate, day 8, single plate): 0 cm
Growth, G. graminis (G. graminis [5]; PDA with 5% (w/v) calcium propionate, day 11, single plate): 0 cm
Growth, G. graminis (G. graminis [5]; PDA with 5% (w/v) calcium propionate, day 15, single plate): 0 cm
Growth, G. graminis (G. graminis [5]; PDA with 7.5% (w/v) calcium propionate, day 4, single plate): 0 cm
Growth, G. graminis (G. graminis [5]; PDA with 7.5% (w/v) calcium propionate, day 5, single plate): 0 cm
Growth, G. graminis (G. graminis [5]; PDA with 7.5% (w/v) calcium propionate, day 8, single plate): 0 cm
Growth, G. graminis (G. graminis [5]; PDA with 7.5% (w/v) calcium propionate, day 11, single plate): 0 cm
Growth, G. graminis (G. graminis [5]; PDA with 7.5% (w/v) calcium propionate, day 15, single plate): 0 cm
Growth, G. graminis (G. graminis [5]; PDA with 10% (w/v) calcium propionate, day 4, single plate): 0 cm
Growth, G. graminis (G. graminis [5]; PDA with 10% (w/v) calcium propionate, day 5, single plate): 0 cm
Growth, G. graminis (G. graminis [5]; PDA with 10% (w/v) calcium propionate, day 8, single plate): 0 cm
Growth, G. graminis (G. graminis [5]; PDA with 10% (w/v) calcium propionate, day 11, single plate): 0 cm
Growth, G. graminis (G. graminis [5]; PDA with 10% (w/v) calcium propionate, day 15, single plate): 0 cm
Growth, G. graminis (G. graminis [5]; PDA with 12% (w/v) calcium propionate, day 4, single plate): 0 cm
Growth, G. graminis (G. graminis [5]; PDA with 12% (w/v) calcium propionate, day 5, single plate): 0 cm
Growth, G. graminis (G. graminis [5]; PDA with 12% (w/v) calcium propionate, day 8, single plate): 0 cm
Growth, G. graminis (G. graminis [5]; PDA with 12% (w/v) calcium propionate, day 11, single plate): 0 cm
Growth, G. graminis (G. graminis [5]; PDA with 12% (w/v) calcium propionate, day 15, single plate): 0 cm
Growth, G. graminis (G. graminis [5]; [11]): no growth
visual detection of dollar spot infection (dollar spot): could no longer be visually detected
growth of disrupted culture, M. poae (M. poae [6]): No growth was observed
visual detection of Fusarium oxysporum infection (Fusarium oxysporum): could no longer be visually detected
Growth, S. homeocarpa (S. homoeocarpa; PDA with 5% (w/v) calcium propionate, day 4): 0 cm
Growth, S. homeocarpa (S. homoeocarpa; PDA with 5% (w/v) calcium propionate, day 5): 0 cm
Growth, S. homeocarpa (S. homoeocarpa; PDA with 5% (w/v) calcium propionate, day 8): 0 cm
Growth, S. homeocarpa (S. homoeocarpa; PDA with 5% (w/v) calcium propionate, day 11): 0 cm
Growth, S. homeocarpa (S. homoeocarpa; PDA with 5% (w/v) calcium propionate, day 15): 0 cm
Growth, S. homeocarpa (S. homoeocarpa; PDA with 7.5% (w/v) calcium propionate, day 4): 0 cm
Growth, S. homeocarpa (S. homoeocarpa; PDA with 7.5% (w/v) calcium propionate, day 5): 0 cm
Growth, S. homeocarpa (S. homoeocarpa; PDA with 7.5% (w/v) calcium propionate, day 8): 0 cm
Growth, S. homeocarpa (S. homoeocarpa; PDA with 7.5% (w/v) calcium propionate, day 11): 0 cm
Growth, S. homeocarpa (S. homoeocarpa; PDA with 7.5% (w/v) calcium propionate, day 15): 0 cm
Growth, S. homeocarpa (S. homoeocarpa; PDA with 10% (w/v) calcium propionate, day 4): 0 cm
Growth, S. homeocarpa (S. homoeocarpa; PDA with 10% (w/v) calcium propionate, day 5): 0 cm
Growth, S. homeocarpa (S. homoeocarpa; PDA with 10% (w/v) calcium propionate, day 8): 0 cm
Growth, S. homeocarpa (S. homoeocarpa; PDA with 10% (w/v) calcium propionate, day 11): 0 cm
Growth, S. homeocarpa (S. homoeocarpa; PDA with 10% (w/v) calcium propionate, day 15): 0 cm
Growth, S. homeocarpa (S. homoeocarpa; PDA with 12% (w/v) calcium propionate, day 4): 0 cm
Growth, S. homeocarpa (S. homoeocarpa; PDA with 12% (w/v) calcium propionate, day 5): 0 cm
Growth, S. homeocarpa (S. homoeocarpa; PDA with 12% (w/v) calcium propionate, day 8): 0 cm
Growth, S. homeocarpa (S. homoeocarpa; PDA with 12% (w/v) calcium propionate, day 11): 0 cm
Growth, S. homeocarpa (S. homoeocarpa; PDA with 12% (w/v) calcium propionate, day 15): 0 cm
growth, S. homoeocarpa (S. homoeocarpa; [11]): no growth
growth in liquid culture, G. graminis (G. graminis [7]): no growth was observed
Growth, G. graminis (G. graminis [8]; 5-12% (w/v) calcium propionate, day 2, average ± SD of three plates): 1.2 ± 0.3 cm
Growth, G. graminis (G. graminis [8]; 5-12% (w/v) calcium propionate, day 3, average ± SD of three plates): 2.2 ± 0.3 cm
Growth, G. graminis (G. graminis [8]; 5-12% (w/v) calcium propionate, day 6, average ± SD of three plates): 2.7 ± 0.3 cm
Growth, G. graminis (G. graminis [8]; 5-12% (w/v) calcium propionate, day 7, average ± SD of three plates): 4.0±0.6 cm
Growth, G. graminis (G. graminis [8]; 5-12% (w/v) calcium propionate, day 10, average ± SD of three plates): 5.9 ± 0.5 cm
Growth, G. graminis (G. graminis [8]; 5-12% (w/v) calcium propionate, day 13, average ± SD of three plates): 8.3 ± 0.3 cm
growth inhibition, G. graminis (G. graminis [8]; wells 0.1-0.5% (w/v) calcium propionate, observed over seven days): no growth inhibition was observed
growth inhibition, G. graminis (G. graminis [8]; wells 0.5-4% (w/v) calcium propionate, 2 and 5 days post inoculation): growth inhibition
growth difference versus control plates, G. graminis (G. graminis [8]; wells 0.5-4% (w/v) calcium propionate, 7 days post inoculation): no growth difference was observed
Growth, G. graminis (G. graminis [8]; wells 0.5-4% (w/v) calcium propionate, day 2, average ± SD of two plates): 1.6 ± 0.1 cm
Growth, G. graminis (G. graminis [8]; wells 0.5-4% (w/v) calcium propionate, day 5, average ± SD of two plates): 4.7 ± 0.2 cm
Growth, G. graminis (G. graminis [8]; wells 0.5-4% (w/v) calcium propionate, day 7, average ± SD of two plates): 7 ± 0.1 cm
growth recovery over 14 days after removal, M. poae (M. poae [9]; 1% or 2% (w/v) calcium propionate): varying degrees of growth recovery
growth while calcium propionate was present, M. poae (M. poae [9]; 1%, 2% or 5% (w/v), established one to six day old cultures, two days): growth was inhibited
growth recovery over 14 days after removal, M. poae (M. poae [9]; 5% (w/v) treatment): no growth recovery was observed
growth three days following removal of calcium propionate, M. poae (M. poae [9]; all concentrations tested (1-5% w/v)): continued growth inhibition
